Here are results for five molecules from patent US12558326B2, “Method for treating epilepsy” (Xenon Pharmaceuticals Inc., priority 2018, dated 2026).

For data set [1], the system named is CF-1 mice. Kind of data set: 6 Hz seizure test (44 mA, 3 sec, corneal electrodes) in vivo. Further details: species or system mouse. The following applies: 20 mg/kg IP; for percentage of animals protected against psychomotor seizures: one hour before assay, 6 Hz 44 mA, n=16 per group. An excerpt:
This assay tests the ability of a test compound to block a psychomotor seizure induced by long-duration, low frequency (6 Hz) stimulation, and provides an art-accepted model of therapy-resistant partial seizure (Brown et al., 1953 J. Pharmacol. Exp. Therapeut. 107(3):273-283; White H S, Woodhead J H, Wilcox K S, General principles: discovery and preclinical development of antiepileptic drugs, In: Levy R H, Mattson R H, Meldrum B S, Perucca E, editors. Antiepileptic drugs 5th ed Philadelphia: Lippincott Williams & Wilkins; 2002. pp. 36-48; Hartman et al., 2008 Epilepsia 49(2):334-339).
Methods. Adult male CF1 mice (18-25 g) are pretreated intraperitoneally (i.p.) with the test compound at a dose of 20-100 mg/kg. If toxicity is noted in a pre-test screen for toxic effects when the test compound is administered i.p. at varying dosages, the dose is modified to avoid overt toxic effects. Each treatment group (n=4-16 mice/group) is examined for anticonvulsive effects at one or more of five time points (¼, ½, 1, 2, and 4 hr) after treatment with the test compound. Following pretreatment, each mouse receives a drop of 0.5% tetracaine hydrochloride applied to each eye. The mouse is then challenged with low-frequency (6 Hz) stimulation for 3 sec delivered through corneal electrodes. The low-frequency, long-duration stimuli are initially delivered at 32 mA intensity. Animals are manually restrained and released immediately following the stimulation and observed for the presence or absence of seizure activity. If the test compound is effective in the 32 mA screen, an additional assay is performed in which the stimulation current is increased to 44 mA but otherwise using the same protocol as described above. For dose-response studies, an n of 8 mice is used per dose and a dose-response curve is generated at the time of peak effect (TPE) at the specific stimulation intensity.
Typically, the 6 Hz stimulation results in a seizure characterized by a minimal clonic phase that is followed by stereotyped, automatistic behaviors, including jaw clonus, forelimb clonus, twitching of the vibrissae, and/or Straub-tail. Animals not displaying such behaviors are considered protected. Seizure score can be used as an additional measure of the efficacy of the investigational compound (Racine, R. J. 1972 Electroencephalogr. Clin. Neurophysiol. 32(3):281-294). Data are analyzed by Mann-Whitney U test, with p<0.05 determined to be statistically significant. For data obtained at each time point, results are expressed as the total number of animals protected out of the number of animals tested over time (e.g., 2/4 represents 2 out of 4 mice tested are protected).
In this Example, the in vivo anticonvulsant effects of candidate AEDs were tested in mice using the 6 Hz seizure test. The 6 Hz seizure test was performed essentially as described above in Biological Example 2, with minor modifications as presented here, including data collection at a time point that was one hour after administration of the candidate AEDs.
Compounds: Candidate AED compounds were prepared as described above unless otherwise noted, and were as follows: • Racemic fenfluramine ([rac]-fenfluramine hydrochloride); • (R)-fenfluramine ([R]-(−)-fenfluramine hydrochloride); • Racemic norfenfluramine ([rac]-norfenfluramine) was purchased from Toronto Research Chemicals, North York, Ontario, Canada; • (R)-norfenfluramine ([R]-(−)-norfenfluramine.
Animals: Adult male CF-1 albino mice (25-35 g) purchased from Harlan-Envigo (East Millstone, NJ). The mice were housed four per cage and had access to filtered water and chow ad libitum, throughout the experiment.
Compound Preparation and Administration: All four compounds were solubilized in sterile aqueous saline solution (0.9% NaCl). Compounds were administered to animals (16 mice in each treatment group) via intraperitoneal (IP) injection at 10 ml/kg volume, one hour prior to the assay. Control animals received vehicle (saline) only. […]

Data set [2] is described as follows: Brain and plasma distribution after the 6 Hz assay (UHPLC-ESI-MS/MS). The format is in vivo, mouse. The following applies: 20 mg/kg IP, total concentration, sampled immediately after 6 Hz assay (one hour post dose). The procedure:
Pharmacological distribution and bioanalysis. Immediately following characterization of seizure behaviors in the 6 Hz assay, animals were humanely sacrificed and brain and plasma samples were collected for analysis of the distribution of the administered compounds to these tissue compartments.
Brain sample homogenization. Pre-weighed whole mouse brains were thawed and 1 mL of deionized water and 1 mL of acetonitrile were added to each sample vial containing brain tissue. The samples were homogenized using a hand-held Omni™ TH homogenizer (Omni International, Kennesaw, GA, USA) until a uniform slurry was obtained. 1 mL aliquots of the slurry were transferred to clean 1.5 mL plastic Eppendorf tubes and the tubes were centrifuged at 13,000 rpm (15,871×g) for 20 minutes. The supernatant was collected and stored in clean labelled plastic Eppendorf vials at −80° C.
Mouse plasma and brain homogenate sample preparation. Mouse brain homogenates and mouse plasma samples, as well as calibration standards and QC samples prepared from control (“blank”) untreated mouse plasma, were extracted by protein precipitation. Briefly, 50 μL of each brain homogenate and mouse plasma sample (as well as each calibration standard, QC sample and blank mouse plasma sample) was mixed with 50 μL of internal standard solution [a 2,500 ng/mL solution of (S)-5-((1-benzylpyrrolidin-3-yl)(methyl)amino)-6-methyl-N-(thiazol-4-yl)pyridine-2-sulfonamide in deionized water/acetonitrile (1:1 v/v)], followed by addition of 50 μL of 6% (v/v) phosphoric acid in water. This was followed by the addition of 200 μL of acetonitrile. The samples were vortexed for 30 seconds and then centrifuged for 20 min at 13,000 rpm (15,871×g). The supernatants were further diluted four-fold with acetonitrile:water (1:1 v/v) and transferred to a 96-well plate prior to analysis. Calibration and QC samples were prepared in blank K2EDTA mouse plasma in the concentration range from 2.3 ng/mL to 4800 ng/mL with QC samples, including low QC (14 ng/mL), mid QC (225 ng/mL), and high QC (3600 ng/mL).
UHPLC-ESI-MS/MS analysis. Samples were then analyzed by ultra-high pressure liquid chromatography/electrospray ionization tandem mass spectroscopy (UHPLC-ESI MS/MS) using a Sciex™ TQ-5500 (AB Sciex™ LP, Concord, ON, Canada) mass spectrometer equipped with a Shimadzu Nexera™ UHPLC pump, column compartment and auto-sampler (Shimadzu Scientific Instruments, Inc., Columbia, MD, USA), using a binary gradient elution starting with 80% water (A)/20% acetonitrile (B), both solvents containing 0.1% formic acid. After 0.6 minutes, mobile phase B was increased linearly to 100% to 1 minute and elution was maintained at 100% mobile phase B until 1.5 minutes, and then allowed to re-equilibrate at the initial ration of 80% mobile phase A and 20% mobile phase B for a total run time of 2.5 minutes at a flow rate of 0.4 mL/min. The column used was ACE Excel™ 2 C18-PFP (2.1 mm i.d.×[…], 2 μm particle size)(Advanced Chromatography Technologies Ltd, Aberdeen, Scotland). The analytes and the internal standard were ionized by electrospray in the positive ion mode and detected by multiple reaction monitoring (MRM) using the transitions listed in Table 1.

Data set [3] deals with 5-HT2A receptor (Homo sapiens, UniProt P28223). The following applies: Rothman et al. 2002, 2003; cited from earlier work.
Data set [4] addresses T1, 5-HT2C receptor (Homo sapiens, UniProt P28335).
T1 sequence (P28335 33-458): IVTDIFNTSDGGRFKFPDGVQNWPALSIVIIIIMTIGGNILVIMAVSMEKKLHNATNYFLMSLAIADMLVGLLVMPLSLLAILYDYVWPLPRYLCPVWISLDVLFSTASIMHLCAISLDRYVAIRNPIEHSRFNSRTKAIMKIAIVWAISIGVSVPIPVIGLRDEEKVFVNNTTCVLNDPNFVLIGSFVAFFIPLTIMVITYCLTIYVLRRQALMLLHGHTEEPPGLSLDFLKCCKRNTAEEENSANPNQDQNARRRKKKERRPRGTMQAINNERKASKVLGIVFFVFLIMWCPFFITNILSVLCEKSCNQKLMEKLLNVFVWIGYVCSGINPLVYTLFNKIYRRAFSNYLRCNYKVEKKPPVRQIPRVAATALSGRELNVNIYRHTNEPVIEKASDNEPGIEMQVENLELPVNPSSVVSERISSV
The note with it: Rothman et al. 2002, 2003; cited from earlier work.

Data set [5] has as its system norepinephrine (NE) release. The following applies: Rothman et al. 2002, 2003; cited from earlier work.
Data set [6] deals with 5-HT2B receptor (Homo sapiens, UniProt P41595). The following applies: Rothman et al. 2002, 2003; cited from earlier work.
Data set [7] concerns DBA/2 mice. Kind of data set: Audiogenic seizure test in DBA/2 mice. The format is in vivo, mouse. The note with it: 180 mg/kg IP, 30 min prior. Here is the method: DBA/2 is a widely used inbred strain of mouse susceptible to audiogenic seizures due to the asp2 mutation. […] The objective of this study was to evaluate the anticonvulsant activity of (R/S)-fenfluramine and to compare it to (R)-fenfluramine in the DBA/2 mouse.
The method follows that described by Dilrmuiller et al., Neuroreport 4(6):683-686. Mice (DBA/2, 3-4 weeks old) were individually transferred (at 3-5 minute intervals) from the preparation room into an adjacent experimental room and placed in a Plexiglas™ jar (Diameter=40 cm; Height=35 cm) mounted with an electric bell (110-120 dB). Upon activating the bell, the occurrences and latencies to wild running fits, clonic and tonic seizures were measured. The number of deaths was also recorded. An audiogenic response score was assigned to each mouse as 0 (no seizure), 1 (wild running), 2 (clonic convulsion), 3 (tonic extension), or 4 (death). The bell was activated until a tonic seizure occurred or for a maximum of 60 seconds. Ten (10) mice were studied per group. The test was performed blind. All test compounds were dissolved in 0.9% saline (vehicle) and were administered by intraperitoneal (IP) injection at a dose volume of 10 mL/kg. Vehicle alone, (R/S)-fenfluramine (15 or 30 mg/kg) or (R)-fenfluramine (30 mg/kg) were administered 60 minutes prior to seizure induction. The positive reference compound (valproate; 180 mg/kg) was administered 30 minutes prior to seizure induction.

Data set [8] concerns MES test. The note with it: in vivo; cited from earlier work.
Data set [9] relates to 6 Hz model. The note with it: 30 min after i.p. injection; cited from earlier work.

In general, ED50 refers to the midpoint of the dose-response relation.

Where “and” joins values, the source holds several entries; their conditions need not be identical. Identical values can stand only once.

Chain of 5-HT2B receptor (P41595 whole entry): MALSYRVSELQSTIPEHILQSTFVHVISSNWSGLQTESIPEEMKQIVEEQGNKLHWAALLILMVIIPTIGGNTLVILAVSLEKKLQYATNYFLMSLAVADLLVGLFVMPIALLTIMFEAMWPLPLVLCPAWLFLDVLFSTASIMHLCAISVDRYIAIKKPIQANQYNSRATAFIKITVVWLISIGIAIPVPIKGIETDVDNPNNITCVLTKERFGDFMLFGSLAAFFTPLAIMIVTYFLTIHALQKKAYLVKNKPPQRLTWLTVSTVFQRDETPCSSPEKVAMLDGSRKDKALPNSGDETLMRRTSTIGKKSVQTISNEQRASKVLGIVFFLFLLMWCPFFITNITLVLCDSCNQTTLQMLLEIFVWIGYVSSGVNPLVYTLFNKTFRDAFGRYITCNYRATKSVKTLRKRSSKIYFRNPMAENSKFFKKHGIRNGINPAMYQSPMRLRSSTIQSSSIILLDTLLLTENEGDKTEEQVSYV
Chain of 5-HT2A receptor (P28223 whole entry): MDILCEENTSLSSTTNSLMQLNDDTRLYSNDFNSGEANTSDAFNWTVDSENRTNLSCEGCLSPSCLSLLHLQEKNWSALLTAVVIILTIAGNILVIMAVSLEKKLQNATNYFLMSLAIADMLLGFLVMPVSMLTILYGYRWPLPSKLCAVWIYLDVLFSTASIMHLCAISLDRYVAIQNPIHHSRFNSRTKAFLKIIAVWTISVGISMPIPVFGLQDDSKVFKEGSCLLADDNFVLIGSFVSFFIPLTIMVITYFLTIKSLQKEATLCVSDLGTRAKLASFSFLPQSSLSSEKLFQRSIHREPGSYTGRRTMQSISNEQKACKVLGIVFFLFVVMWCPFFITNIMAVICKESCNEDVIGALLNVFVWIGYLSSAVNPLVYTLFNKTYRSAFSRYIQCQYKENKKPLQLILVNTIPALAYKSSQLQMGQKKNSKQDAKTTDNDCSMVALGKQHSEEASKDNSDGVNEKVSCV

In the case of `CC(N)Cc1cccc(C(F)(F)F)c1` (racemic) [(rac)-norfenfluramine, (R/S)-1-(3-(trifluoromethyl)phenyl)propan-2-amine], the “percentage of animals protected against psychomotor seizures” value in data set [1] was found to be 50%. Further, the “protective activity against seizures in the 6 Hz psychomotor seizure assay” value in data set [1] (summary statement) is given as “exhibited protective activity against seizures”. Also, in data set [2], the Brain concentration is 151.2 μM and 30718 ng/g; the Plasma concentration is 12.97 μM and 2636 ng/g.
`C[C@@H](N)Cc1cccc(C(F)(F)F)c1` [(R)-norfenfluramine, (R)-1-(3-(trifluoromethyl)phenyl)propan-2-amine]: in data set [1], the “percentage of animals protected against psychomotor seizures” value turned out to be 50%. Also, in [2], the Brain concentration is 179.6 μM and 36501 ng/g; the Plasma concentration is 17.73 μM and 3604 ng/g.
For the molecule `C[C@H](N)Cc1cccc(C(F)(F)F)c1` [(S)-norfenfluramine, (S)-1-((3-trifluoromethyl)phenyl)propan-2-amine], the 5-HT2A agonist activity result in data set [3] was “potent”. Besides, in [4], the 5-HT2C agonist activity result is listed as “potent”. For the same molecule, in [5], the NE release-promoting activity result is “potent”. Further, the 5-HT2B agonist activity entry in data set [6] is given as “potent”.
Turning to `CCCC(CCC)C(=O)O` [Valproate], in data set [7] (n=10), the “Clonic Convulsion Incidence” value was 0%, the “Tonic Extension Incidence” value was 0% and the “Wild Running Incidence” value is reported as 40%. In [7] (mean ± SEM, maximum 60 s), the “Clonic Convulsion Latency” value is given as 60.0 ± 0.0 s, the “Tonic Extension Latency” value came to 60.0 ± 0.0 s and the “Wild Running Latency” value turned out to be 38.1 ± 9.0 s. For the same molecule, the “Audiogenic Response Score” value in data set [7] (score 0-4, mean ± SEM, n=10) turned out to be 0.4 ± 0.16.
Consider `CC[C@@H](C(N)=O)N1CCCC1=O` [levetiracetam], for which the “efficacy in the MES test” value in [8] is given as “ineffective”. For the same molecule, in [9], the ED50 is 19 mg/kg.
